Source: patent US20070248597A1, “Methods of decreasing vascular calcification using IL-1 inhibitors” (priority 2005, published 2007)

Assays:
Format in all cases: in vivo, rat
5/6 nx uremic rats = test: Aortic calcification (Von Kossa, pathologist score) in 5/6-nephrectomy model of CKD and secondary HPT; conditions: for aortic calcification severity (Von Kossa calcification score): 5/6Nx male SD rats, uremia established 8 weeks, treatment week 4, Fc-IL-1ra 100 mg/kg/day s.c., calcitriol 30 ng
From the text: We administered the IL-1 receptor antagonist Fc-IL-1ra, calcitriol, the combination of Fc-IL-1ra+calcitriol) or their corresponding vehicles to a rodent animal model of chronic kidney disease (CKD) and secondary hyperparathyroidism (SHPT) induced by subtotal nephrectomy (5/6Nx). The experimental paradigm is shown in FIG. 5, with the treatment groups set out in Table 2 below.
Aortas were removed at treatment week 4 (trt wk4), fixed and stained for mineralization (Von Kossa) and the severity determined and scored by a pathologist blinded to the treatments (Calcification Scores: 0=no calcification; 1=minimal; 2=mild; 3=moderate; 4=marked; 5=severe).

[1] = system: adenine-induced CKD/SHPT rats; test: Aortic vascular calcification (bone mineral density of isolated aortas, Dxa scanner) in adenine model of CKD/SHPT
Procedure: (§1) Adenine, included as a dietary supplement (0.75%), was fed to adult, male Sprague-Dawley rats. Blood for chemistry analyses (total serum calcium, phosphorous, blood urea nitrogen [BUN], creatinine, PTH) was collected before and again on drug treatment days 0 (pretreatment) and 21 from the retro-orbital sinus of anesthetized rats. Blood (0.5 ml) was collected for PTH levels into SST (clot activator) brand blood tubes and allowed to clot. Serum was removed and stored at −70° C. until assayed. PTH levels were quantified according to the vendor's instructions using rat PTH (1-34) immunoradiometric assay kit (Immutopics, San Clemente, Calif.). Calcium and phosphorous were measured using a blood chemistry analyzer (AU 400; Olympus, Melville, N.Y.).
Vascular calcification was assessed by quantifying the bone mineral density from fixed (formalin, PBS), isolated aortas using a Dxa scanner (Piximus densitomer, GE Healthcare).

[2] = system: adenine-induced CKD/SHPT rats; test: Blood chemistry (BUN, creatinine, PTH) in adenine model of CKD/SHPT
Procedure: as §1

[3] = system: adenine-induced CKD/SHPT rats; test: Parathyroid gland size in adenine model of CKD/SHPT; conditions: FIG. 3A, p=0.009 vs A5S vehicle (n=13 vs n=8)

## C=C1/C(=C\C=C2/CCC[C@]3(C)[C@@H]([C@H](C)CCCC(C)(C)O)CC[C@@H]23)C[C@@H](O)C[C@@H]1O [calcitriol, 1α, 25-dihydroxycholecalciferol, reference compound]
5/6 nx uremic rats
  aortic calcification severity (Von Kossa calcification score): marked to severe
5/6 nx uremic rats; 5/6Nx uremic rats, treatment week 4, n=8 evaluated
  incidence of severe calcification: 50%

## Fc-IL-1ra: molecule having the sequence shown in FIG. 4 (SEQ ID NO: 1); fusion protein comprising IL-1ra; IL-1 receptor antagonist
[1]; adenine diet 0.75%, male Sprague-Dawley rats, Fc-IL-1ra n=7 vs A5S vehicle n=4, p=0.005 unpaired t-test
  bone mineral density (aortic calcification): 0 g/cm2
[1]; adenine model, FIG. 2
  development of aortic vascular calcification (bone mineral density content of the aorta): prevented
[1]; adenine model, Fc-IL-1ra-treated animals
  animals with no calcification: seven of seven
[2]
  BUN: did not affect
  creatinine levels: did not affect
[2]; FIG. 3B, p=0.028 vs A5S vehicle (n=7 vs n=4)
  serum PTH levels: decreased
[3]
  size of the parathyroid gland: reduced
5/6 nx uremic rats
  aortic calcification severity (Von Kossa calcification score): did not cause vascular calcification
5/6 nx uremic rats; 5/6Nx rats, Fc-IL-1ra 100 mg/kg/day s.c. + calcitriol 30 ng, week 4, FIG. 6
  calcitriol (Vitamin D3)-induced aortic vascular calcification: attenuated
